The source of these data is patent publication US9605027B2, “Polypeptides that bound to IL-23 receptor and inhibit binding of IL-23 and cell signaling thereof” (Medical Diagnostic Laboratories, LLC, priority 2011, dated 2017).

Entries after “also recorded” stand apart in the source; their conditions may differ. Peptide text beside a SMILES is read from it.

Assay [1] concerns the target T1, Recombinant human IL-23R-Fc (Homo sapiens, UniProt Q5VWK5).
T1 construct: has the protein portion between the 24 amino acid residue to 353 amino acid residue; purchased R&D Systems 1400-IR-050
T1 sequence (Q5VWK5 24-353): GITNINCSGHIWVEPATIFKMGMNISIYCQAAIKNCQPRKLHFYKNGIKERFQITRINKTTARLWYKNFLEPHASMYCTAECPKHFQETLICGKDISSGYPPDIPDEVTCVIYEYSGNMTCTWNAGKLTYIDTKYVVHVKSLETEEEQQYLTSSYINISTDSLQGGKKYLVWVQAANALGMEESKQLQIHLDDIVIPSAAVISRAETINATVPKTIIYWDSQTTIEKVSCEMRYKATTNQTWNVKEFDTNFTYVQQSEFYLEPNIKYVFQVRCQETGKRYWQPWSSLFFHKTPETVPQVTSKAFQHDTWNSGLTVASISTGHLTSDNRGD
In words: Competitive ELISA, IL-23 binding to IL-23R. Particulars: for inhibition of IL-23 binding to its receptor by modified polypeptides, Competitive ELISA: procedure of Example 6, compared with parent polypeptide. As for the experimental part:
The novel polypeptides were tested for their ability to inhibit IL-23 using a Competitive ELISA. In such an assay, IL-23R/Fc fusion protein was immobilized on a solid support. In this instance, the solid support was a 96-well plate, but the support may be any support that is typically used for an ELISA. The novel polypeptide and IL-23 were allowed to compete for binding to the immobilized IL-23R/Fc fusion protein. IL-23 that bound to IL-23R-Fc was detected using biotinylated anti-p40 antibody. The bound anti-p40 antibody was detected using streptavidin-horseradish peroxidase (HRP) and a tetramethylbenzidine (TMB) substrate was added to measure peroxidase activity. The color was measured at optical density (OD) 450nm. The color intensity was directly proportional to the amount of the bound IL-23 protein. […] (See, FIG. 16.)
(§1) FIG. 12 is a schematic depiction of the Competitive ELISA. Recombinant human IL-23R-Fc (2 μg/ml) was coated onto microtiter plates as a capture reagent. IL-23 and polypeptides were added to compete for binding to the immobilized IL-23R-Fc. IL-23 that bound to IL-23R-Fc was detected using biotinylated anti-p40 antibody (1:250). The bound anti-p40 antibody was detected using streptavidin-horseradish peroxidase (HRP) (1:500) and 100 μl/well of a tetramethylbenzidine (TMB) substrate was added to measure peroxidase activity. The color was measured at optical density (OD) 450nm. (See, FIG. 12). The color intensity was directly proportional to the amount of the bound IL-23 protein.
as §1, with “Recombinant” for “FIG. 12 is a schematic depiction of the Competitive ELISA. Recombinant”, “IL-23R-Fc. 50 μg human IL-23 (Cat. No. HZ-1048) (Humanzyme, Chicago, Ill.) in the presence or absence of 100 μM peptides was added to the well and incubated at 4° C. overnight.” for “IL-23R-Fc.”, “450nm.” for “450nm. (See, FIG. 12).”

Assay [2] addresses IL-23 induced IL-22 production in human PBMCs (Homo sapiens, UniProt Q5VWK5). Put plainly: IL-22 production induced by IL-23 in human PBMC. Format: cell-based. As to conditions: IL-23 2 ng/ml, ELISA; read-out: IC50, inhibition of IL-22 production. As for the experimental part: Peripheral blood mononuclear cells (PBMCs) were isolated from heparinized venous whole blood from healthy donors by density gradient centrifugation using Ficoll-Paque (Sigma-Aldrich, St Louis, Mo., USA). Human venous blood was purchased as anonymous buffy coats from the New Jersey Blood Transfusion Service. After isolation, the PBMCs were cultured in RPMI-1640 medium (Invitrogen-Gibco, Carlsbad, Calif.) supplemented with 10% heat-inactivated fetal bovine serum (Invitrogen-Gibco) and 1 mM of glutamine (Invitrogen-Gibco) at 37° C.
Isolated PBMCs (5×10^6 cells/ml) were cultured in the presence of […] and IL-18 (20 ng/ml). A serial dilution of IL-23 (from 0-2 ng/ml) was added to the cell culture for 30 hours. We measured the production of IL-22 by ELISA (Catalog #88-7522, eBioscience, San Diego, Calif.) according to manufacturer's protocol).
In order to measure the IC50 value of cyclic peptide no. 2HT AA (SEQ ID NO: 177), the cells were treated with a fixed amount of IL-23 cytokine (2 ng/ml) in the presence of a serial dilution of cyclic peptide no. 2HT AA (SEQ ID NO: 177). The cyclic peptide (SEQ ID NO: 177) inhibits IL-23 cytokine in PBMCs in a dose-dependent manner. […] Thus, the cyclic peptide no.

Sequence of IL-23 induced IL-22 production in human PBMCs (Q5VWK5 24-629 limits assumed): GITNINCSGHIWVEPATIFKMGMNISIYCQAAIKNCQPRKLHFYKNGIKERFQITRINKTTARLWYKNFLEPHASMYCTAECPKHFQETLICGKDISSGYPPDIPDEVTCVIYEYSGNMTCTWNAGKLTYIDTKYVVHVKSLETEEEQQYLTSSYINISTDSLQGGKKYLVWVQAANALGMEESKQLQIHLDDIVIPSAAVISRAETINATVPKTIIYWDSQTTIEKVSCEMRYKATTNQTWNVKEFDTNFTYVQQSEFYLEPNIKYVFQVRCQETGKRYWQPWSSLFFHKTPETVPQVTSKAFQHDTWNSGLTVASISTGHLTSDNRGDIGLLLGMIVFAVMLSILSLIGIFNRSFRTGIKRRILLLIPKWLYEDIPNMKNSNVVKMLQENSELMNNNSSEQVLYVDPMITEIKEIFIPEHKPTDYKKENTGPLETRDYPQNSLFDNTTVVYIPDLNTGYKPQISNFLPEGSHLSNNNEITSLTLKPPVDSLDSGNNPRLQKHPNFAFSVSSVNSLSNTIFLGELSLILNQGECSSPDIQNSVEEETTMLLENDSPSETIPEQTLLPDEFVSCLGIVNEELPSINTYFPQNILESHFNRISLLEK

Turning to `CSCC[C@@H]1NC(=O)[C@H](CCCCN)NC(=O)[C@H](C)NC(=O)[C@H](C)NC(=O)[C@H](CS)NC(=O)[C@H](CC(N)=O)NC(=O)[C@H](CCCCN)NC(=O)[C@H](CC(C)C)NC(=O)[C@H](Cc2c[nH]c3ccccc23)NC(=O)[C@H](Cc2ccc(O)cc2)NC(=O)[C@H](CC(=O)O)NC(=O)[C@H](C(C)C)NC(=O)[C@H](Cc2c[nH]c3ccccc23)NC(=O)[C@H]([C@@H](C)O)NC1=O` [2HT AA] (cyclo(AAKMTWVDYWLKNC)), the IC50 in assay [1] (human IL-23 / IL-23R-Fc, read-out: IC50, cell-free competitive ELISA) worked out at 8.1 nM; in assay [2] it was 337 nM. For the same molecule, in assay [1], the “inhibition of IL-23 binding to its receptor by modified polypeptides, Competitive ELISA” value is given as “did not abrogate the polypeptides' ability; also recorded: best inhibitory activity”.

With `CSCC[C@@H]1NC(=O)[C@H](C)NC(=O)[C@@H](N)CSSC[C@@H](C(=O)O)NC(=O)[C@H](CCCNC(=N)N)NC(=O)CNC(=O)[C@H](Cc2ccc(O)cc2)NC(=O)[C@H](CC(C)C)NC(=O)[C@H](Cc2c[nH]c3ccccc23)NC(=O)[C@H](Cc2ccc(O)cc2)NC(=O)[C@H](CC(=O)O)NC(=O)[C@H](CCC(N)=O)NC(=O)[C@H](Cc2c[nH]c3ccccc23)NC(=O)[C@H]([C@@H](C)O)NC1=O` [23.19], in assay [1], the “inhibition of IL-23 binding to its receptor by modified polypeptides, Competitive ELISA” value is recorded as “equally effective”.
